Series [1] has as its system FADD-deficient Jurkat cells. The series is described as follows: TNF-α-induced necroptosis, cell viability (CellTiter Glo). It counts as cell-based, human. To be noted: 10 ng/ml TNF-α overnight. The method, then: (§1) Cells were seeded in 12-, 24- or 96-well plates at proper cell density. For necroptosis or apoptosis assays, cells were incubated with the indicated compound combinations at concentrations stated for 14–24 h. Smac mimetic and z-VAD-FMK were added 30–60 min before treatment with TNF-α, FasL or TRAIL. Cell viability was determined using CellTiter Glo Luminescent Cell Viability Assay (Promega, Fitchburg, WI, USA) according to the manufacturer's instructions. Luminescence was recorded with a SpectraMax M5Multimode plate reader (Molecular Devices, Sunnyvale, CA, USA). For flow cytometry-based determination of viability, cells were harvested, collected by centrifugation, washed once and resuspended in staining buffer (1 × PBS, 10% FBS). Cells were incubated with 0.5 μg/ml PI for 10 min at room temperature (RT) in the dark. Flow cytometric analyses were performed on an LSR Fortessa (BD Biosciences) and analyzed with FlowJo software version 7.6.3 (Tree Star Inc, Ashland, OR, USA). Cell size was evaluated by forward scatter. PI-negative normal-sized cells were considered living and data were normalized to values of untreated controls.
The compounds were transferred into drug plates by acoustic droplet ejection using an Echo 520 liquid handler (LABCYTE, Sunnyvale, CA, USA). Necroptosis was induced in FADD-deficient Jurkat cells by addition of 10 ng/ml TNF-α immediately before seeding onto drug plates at a density of 1x10^4 cells/well. After 16 h incubation, cell viability was determined using CellTiter Glo Luminescent Cell Viability Assay according to manufacturer's instructions. Data analysis was performed by calculating a percentage of control to normalize for variability across different plates. The signal for the negative control DMSO wells was set to 0%, whereas the wells containing the positive control Nec-1 were put to 100% for each plate individually.
(ATP-based viability assays read luminescence as a measure of living cells.)

The test system of another series is Jurkat E6.1 cells. The series is described as follows: FasL-induced apoptosis, cell viability. Type of series: cell-based. Particulars: 100 ng/ml human FasL, 24 h; 0.5 μM ponatinib, 5 μM pazopanib. The protocol: as §1, with “controls. For detection of apoptosis, cells were resuspended in Annexin V Binding Buffer (BioLegend, San Diego, CA, USA) and stained with 0.5 μg/ml PI and Alexa Fluor 647 Annexin V (BioLegend) according to manufacturer's instructions.” for “controls.”

The subject of the next series is 3T3-SA or L929 cells. The series is described as follows: Drug toxicity dose-response, Supplementary Figure 3. Type of series: cell-based, murine. Particulars: Mus musculus, read-out: IC50 (printed in Supplementary Figure 3). The method, then:
as §1, with “controls. For detection of apoptosis, cells were resuspended in Annexin V Binding Buffer (BioLegend, San Diego, CA, USA) and stained with 0.5 μg/ml PI and Alexa Fluor 647 Annexin V (BioLegend) according to manufacturer's instructions.” for “controls.”

For a further series, the system named is HT-29 MLKL S358D cells. As to the kind of experiment: Cell death driven by doxycycline-induced MLKL S358D expression. Type of series: cell-based, human. To be noted: 2 μg/ml doxycycline overnight; 10 μM NSA, 0.5 μM ponatinib. The method, then:
as §1, with “controls. For detection of apoptosis, cells were resuspended in Annexin V Binding Buffer (BioLegend, San Diego, CA, USA) and stained with 0.5 μg/ml PI and Alexa Fluor 647 Annexin V (BioLegend) according to manufacturer's instructions.” for “controls.”

Series [2] concerns FADD-deficient Jurkat cells. The series is described as follows: Flow cytometry viability (propidium iodide / forward scatter), TNFα-induced necroptosis. It counts as cell-based. To be noted: human, 6 h. The protocol: as §1, with “controls. For detection of apoptosis, cells were resuspended in Annexin V Binding Buffer (BioLegend, San Diego, CA, USA) and stained with 0.5 μg/ml PI and Alexa Fluor 647 Annexin V (BioLegend) according to manufacturer's instructions.” for “controls.”
For orientation: In flow cytometry, cells or beads pass a laser one at a time.

A further series addresses RIPK3 to MLKL binding (Homo sapiens, UniProt Q9Y572). To be noted: HT-29 HA-MLKL cells, doxycycline overnight; 0.5 μM ponatinib, 5 μM pazopanib.
A further series concerns the target RIPK3 (Homo sapiens, UniProt Q9Y572). The series is described as follows: Recombinant kinase assay. Type of series: biochemical. The arrangement: purchased Signalchem R09-10G. The protocol: Recombinant RIPK1 or RIPK3 protein was incubated with the substrate MBP in kinase assay buffer (40 mM Tris-HCl pH 7.5, 10 mM MgCl2 and 1 mM DTT) in presence of 50 μM ATP, 5 μCi [γ-32 P]ATP and the indicated inhibitors in a total volume of 20 μl. […] The terminated reactions were spotted onto a SAM2 Biotin Capture membrane (Promega) and further processed according to the manufacturer's instructions. […] Data were normalized to a DMSO-treated control sample. For autoradiography, the reactions were stopped by addition of 5 μl 4x Laemmli buffer and incubated for 5 min at 95 °C.

Chain of RIPK3 (Q9Y572 whole entry): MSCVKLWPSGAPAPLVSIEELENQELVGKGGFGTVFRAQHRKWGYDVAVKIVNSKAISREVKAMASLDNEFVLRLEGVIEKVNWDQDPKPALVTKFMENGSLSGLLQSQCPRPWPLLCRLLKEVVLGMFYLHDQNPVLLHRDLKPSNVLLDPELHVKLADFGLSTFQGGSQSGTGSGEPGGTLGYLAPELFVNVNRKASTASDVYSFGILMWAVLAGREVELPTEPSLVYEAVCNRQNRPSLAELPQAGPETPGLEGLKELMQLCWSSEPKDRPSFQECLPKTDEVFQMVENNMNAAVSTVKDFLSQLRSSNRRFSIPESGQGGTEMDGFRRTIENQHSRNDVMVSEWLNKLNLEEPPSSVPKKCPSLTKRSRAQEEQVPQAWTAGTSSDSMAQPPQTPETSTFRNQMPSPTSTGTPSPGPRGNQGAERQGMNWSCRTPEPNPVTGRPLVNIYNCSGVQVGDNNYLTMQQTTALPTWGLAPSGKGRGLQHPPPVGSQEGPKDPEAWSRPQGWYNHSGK
Chain of RIPK3 to MLKL binding (Q9Y572 whole entry): as above

With `Cc1ccc(C(=O)Nc2ccc(CN3CCN(CCCN)CC3)c(C(F)(F)F)c2)cc1C#Cc1cnc2cccnn12` [c-ponatinib], the “block of necroptosis compared with ponatinib” value in series [1] (Figure 3b) is recorded as “blocked necroptosis with only a minor reduction in potency”.
With `Cc1ccc(C(=O)Nc2ccc(CN3CCN(C)CC3)c(C(F)(F)F)c2)cc1C#Cc1cnc2cccnn12` [ponatinib, Ponatinib], the “rescue of cell viability in drug screen” value in series [1] (0.5 and 1.5 μM) is “robustly rescued cell viability at both concentrations”. Besides, the EC50 (usually the concentration at which the effect is half-maximal) in series [1] (Homo sapiens, Jurkat, CellTiter Glo, read-out: EC50 for inhibiting necroptosis) stood at 89 nM. Moreover, the “inhibition of apoptotic cell death triggered by FasL” value in the series on Jurkat E6.1 cells is “none of the drugs inhibited apoptotic cell death”. Also, in the series with 3T3-SA or L929 cells, the IC50 (as a rule, the concentration that inhibits the measured activity by half) worked out at 1100 nM. Besides, in the series with HT-29 MLKL S358D cells, the “block of cell death driven by MLKL S358D expression” value was “did not prevent cell death”. For the same compound, the viable cells in series [2] is listed as 79,3%. The “binding of RIPK3 to MLKL” value on RIPK3 to MLKL binding is given as “efficiently blocked binding of RIPK3 to MLKL”. Further, at RIPK3 (50 μM ATP, Figure 4e inhibitors at 10 μM), the “RIPK3 kinase activity (MBP phosphorylation)” value is on record as “strongly blocked phosphorylation”. Further, the RIPK3 autophosphorylation result on RIPK3 (autoradiography, Supplementary Figure 4c) is “efficiently blocked”.

Source of the values: publication PMC4669708 (Cell Death & Disease, 2015).
